Values joined by “and” are separate entries in the source; they are usually repeats but may differ in a detail not shown here. Identical values can stand only once.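 48-hour exposure; five concentrations; linearly interpolated endpoints. Here, GI50 denotes the concentration required for 50% inhibition of growth. Definition used: TGI = concentration required for complete inhibition of growth.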 Bounds are passed on as bounds.

Some test systems named below: HOP-62 NSCLC; SK-MEL-5 melanoma; NCI-H460 lung; EKVX NSCLC; SK-OV-3 ovarian; RXF 393 renal; KM12 colon; K-562 leukemia; RPMI-8226 leukemia; BT-549 breast.
What all share (assay): growth of human tumour cells (NCI), 48 h

Turning to `O=C1NC(c2ccccc2Cl)Nc2ccccc21` (stereo unspecified), the TGI with HOP-62 NSCLC is above 100 µM; with SK-MEL-5 melanoma, above 80.5 µM; in the assay with NCI-H460 lung, above 100 µM; with EKVX NSCLC, above 100 µM; in the assay with SK-OV-3 ovarian, above 100 µM; with RXF 393 renal, 63.1 µM. Moreover, the TGI in the assay with KM12 colon was above 100 µM; with K-562 leukemia it was above 30.4 µM; in the assay on RPMI-8226 leukemia, 62.8 µM; in the assay on BT-549 breast it was above 100 µM.
With `CNS(=O)(=O)Nc1nccc(Cc2c(C)c3ccc(Oc4ncccn4)cc3oc2=O)c1F`, the TGI was above 100 µM in the assay with HOP-62 NSCLC; 17.4 µM and > 10 µM in the assay on SK-MEL-5 melanoma; above 100 µM with NCI-H460 lung; above 100 µM in the assay with EKVX NSCLC; above 100 µM with SK-OV-3 ovarian; above 100 µM in the assay on RXF 393 renal. Also, the TGI with KM12 colon, in the assay on K-562 leukemia, in the assay with RPMI-8226 leukemia and in the assay with BT-549 breast was above 100 µM throughout. The GI50 was 0.153 µM and 0.926 µM with SK-MEL-5 melanoma; above 62 µM in the assay on NCI-H460 lung; 0.438 µM and 0.351 µM in the assay on EKVX NSCLC; 4.99 µM and 3.02 µM with RXF 393 renal; 0.467 µM and 0.367 µM in the assay with KM12 colon; 2.21 µM and 1.62 µM with K-562 leukemia. Further, the GI50 with RPMI-8226 leukemia was 12.3 µM and > 9.21 µM; in the assay with BT-549 breast, 24.2 µM and > 10 µM.
Take `C=C(C)c1nc(Oc2ccccc2)nc(Oc2ccccc2)n1`: the TGI is 25 µM in the assay on HOP-62 NSCLC; 27.4 µM with SK-MEL-5 melanoma; 22.8 µM in the assay with NCI-H460 lung; 32.8 µM with EKVX NSCLC; 30.3 µM in the assay with SK-OV-3 ovarian; 8.11 µM with RXF 393 renal. Also, the TGI in the assay with KM12 colon is 10.9 µM; in the assay on K-562 leukemia it was 5.49 µM; with RPMI-8226 leukemia it was 12 µM; in the assay with BT-549 breast, 13.1 µM.
On to `OC[C@H]1C[C@](O)(c2ccc(F)cc2)[C@@H](c2ccc(F)cc2)O1`, for which the GI50 was above 100 µM in the assay with HOP-62 NSCLC; above 100 µM with SK-MEL-5 melanoma; above 100 µM in the assay on NCI-H460 lung; above 100 µM in the assay on EKVX NSCLC; above 100 µM in the assay on SK-OV-3 ovarian; 52.7 µM in the assay on RXF 393 renal. Besides, the GI50 in the assay on KM12 colon, in the assay on K-562 leukemia, in the assay on RPMI-8226 leukemia and with BT-549 breast was above 100 µM throughout. Further, the TGI with HOP-62 NSCLC, in the assay on SK-MEL-5 melanoma, with NCI-H460 lung, with EKVX NSCLC, with SK-OV-3 ovarian and in the assay with RXF 393 renal was above 100 µM in each case. Moreover, the TGI in the assay on KM12 colon, in the assay with K-562 leukemia, in the assay with RPMI-8226 leukemia and with BT-549 breast was above 100 µM each time.
On to `CN(C)[C@@H]1C(=O)C(C(=O)NCc2nc3[nH]cnc(=S)c3[nH]2)=C(O)[C@@]2(O)C(=O)C3=C(O)c4c(O)cccc4[C@@](C)(O)[C@H]3C[C@@H]12`, for which the GI50 with HOP-62 NSCLC was 1.4 µM; with SK-MEL-5 melanoma, 24.8 µM; in the assay on NCI-H460 lung it was 19.1 µM; with EKVX NSCLC, above 100 µM; in the assay with SK-OV-3 ovarian, 2 µM; in the assay with RXF 393 renal, 26.1 µM. In addition, the GI50 with KM12 colon was 5.01 µM; with K-562 leukemia it was 1.41 µM; in the assay with RPMI-8226 leukemia it was 4.35 µM; in the assay with BT-549 breast it was above 100 µM. The TGI with HOP-62 NSCLC, in the assay on SK-MEL-5 melanoma, with NCI-H460 lung, with EKVX NSCLC, in the assay on SK-OV-3 ovarian and in the assay with RXF 393 renal was above 100 µM throughout. For the same molecule, the TGI with KM12 colon, in the assay on K-562 leukemia, in the assay with RPMI-8226 leukemia and in the assay with BT-549 breast was above 100 µM in each case.
On to `COc1cc2c3c(n(CCCN)c(=O)c2cc1OC)-c1ccc(N)cc1C3=O`, for which the GI50 was 1.55 µM with HOP-62 NSCLC; 0.902 µM in the assay with SK-MEL-5 melanoma; 4.52 µM in the assay on NCI-H460 lung; 9.15 µM in the assay with EKVX NSCLC; 2.52 µM in the assay on SK-OV-3 ovarian; 1.07 µM in the assay with RXF 393 renal. For the same molecule, the GI50 in the assay with KM12 colon was 9.26 µM; with K-562 leukemia, 0.155 µM; in the assay with RPMI-8226 leukemia it was 19.5 µM; with BT-549 breast, 1.97 µM. Further, the TGI in the assay with HOP-62 NSCLC is 4.92 µM; in the assay with SK-MEL-5 melanoma, 2.88 µM; in the assay with NCI-H460 lung it was 16.8 µM; in the assay with EKVX NSCLC, above 30.9 µM; in the assay on SK-OV-3 ovarian, 17.9 µM; in the assay on RXF 393 renal, 7.22 µM. For the same molecule, the TGI with KM12 colon is above 74.2 µM; with K-562 leukemia, 12 µM; with RPMI-8226 leukemia, 49.8 µM; with BT-549 breast, 8.85 µM.
As for `CCCCCCCCCCN=C(N)c1ccc(N2CCN(c3ccc(C(N)=NCCCCCCCCCC)cc3)CC2)cc1`, the GI50 in the assay with HOP-62 NSCLC was 11.3 µM; with SK-MEL-5 melanoma it was 2.19 µM; with NCI-H460 lung, 1.97 µM; with EKVX NSCLC, 4.44 µM; in the assay with SK-OV-3 ovarian it was 4.08 µM; in the assay on RXF 393 renal, 6.82 µM. In addition, the GI50 in the assay on KM12 colon is 2.9 µM; in the assay with K-562 leukemia, 1.95 µM; in the assay with RPMI-8226 leukemia, 1.96 µM; in the assay on BT-549 breast it was 1.69 µM. Besides, the TGI in the assay with HOP-62 NSCLC was 29 µM; with SK-MEL-5 melanoma, above 50 µM; with NCI-H460 lung, above 50 µM; in the assay on EKVX NSCLC, 21.1 µM; with SK-OV-3 ovarian, above 50 µM; in the assay on RXF 393 renal, 36.1 µM. The TGI in the assay with KM12 colon is 17.8 µM; in the assay on K-562 leukemia, above 50 µM; in the assay on RPMI-8226 leukemia, above 50 µM; in the assay on BT-549 breast, 5.04 µM.
Consider `O=C(CCN1CCOCC1)Nc1ccc(Cn2nnc3c2C(=O)c2nnn(Cc4ccc(NC(=O)CCN5CCOCC5)cc4)c2C3=O)cc1`, for which the GI50 was 57.7 µM with HOP-62 NSCLC; 0.59 µM in the assay on SK-MEL-5 melanoma; 0.569 µM with NCI-H460 lung; above 100 µM in the assay on EKVX NSCLC; above 84 µM in the assay on SK-OV-3 ovarian; above 100 µM with RXF 393 renal. Further, the GI50 with K-562 leukemia was 1.81 µM; in the assay with RPMI-8226 leukemia it was 1.43 µM; in the assay with BT-549 breast, 2.87 µM. The TGI in the assay on HOP-62 NSCLC is above 100 µM; in the assay on SK-MEL-5 melanoma, 1.71 µM; in the assay with NCI-H460 lung it was above 100 µM; with EKVX NSCLC, above 100 µM; in the assay with SK-OV-3 ovarian, above 100 µM; in the assay with RXF 393 renal, above 100 µM. The TGI with K-562 leukemia was above 100 µM; in the assay with RPMI-8226 leukemia, above 21.1 µM; in the assay on BT-549 breast it was 8.77 µM.

For the origin of these results see PubChem BioAssay (NCI).
